{"source": "patent US20190070210A1", "about": "“COMPOSITION AND METHODS FOR CONDITIONS ASSOCIATED WITH CHRONIC PULMONARY OBSTRUCTIVE DISEASE” (priority 2017, published 2019)", "origin": "cited, not measured here", "conditions": "solution, 4° C. and neutral pH", "data": [{"compound": "NC(=O)c1ccc[n+]([C@@H]2O[C@H](COP(=O)([O-])OP(=O)(O)OC[C@H]3O[C@@H](n4cnc5c(N)ncnc54)[C@H](O)[C@@H]3O)[C@@H](O)[C@H]2O)c1", "note": "[NAD+, nicotinamide adenine dinucleotide]", "values": [{"measurement": "time for which solutions are stable", "value": "about a week"}]}]}
